The numbers were not newly measured in US6544961B1, “Combinations comprising VX478, zidovudine, FTC and/or 3TC for use in the treatments of HIV” (SmithKline Beecham Corporation, priority 1996, dated 2003), which cites them from elsewhere.

Structures are written as SMILES.

The data set relates to HIV. To be noted: European Patent Specification No. 384536.

On to `Nc1ccn(C2CSC(CO)O2)c(=O)n1` (racemic) [BCH-189, 4-amino-1-(2-hydroxymethyl-1,3-oxathiolan-5-yl)-(1H)-pyrimidin-2-one], for which the anti-HIV activity result is reported as “have been found to have anti-HIV activity”.
